Assay results reported in patent US8785429B2, “Dihydropyrrolonaphthyridinone compounds as inhibitors of JAK” (Takeda Pharmaceutical Company Limited, priority 2009, dated 2014).

What was measured:
JAK3 = molecular target: T1, JAK3 (Homo sapiens, UniProt P52333); assay: Assay for JAK3 Inhibition (phosphorylation of FAM-labeled substrate, Caliper LC-3000); assay type: biochemical; conditions: −log10(IC50), IC50 is the molar concentration at 50% inhibition; read-out: JAK3 pIC50 (converted)
T1 construct: purchased Invitrogen
T1 sequence (P52333 1-1124): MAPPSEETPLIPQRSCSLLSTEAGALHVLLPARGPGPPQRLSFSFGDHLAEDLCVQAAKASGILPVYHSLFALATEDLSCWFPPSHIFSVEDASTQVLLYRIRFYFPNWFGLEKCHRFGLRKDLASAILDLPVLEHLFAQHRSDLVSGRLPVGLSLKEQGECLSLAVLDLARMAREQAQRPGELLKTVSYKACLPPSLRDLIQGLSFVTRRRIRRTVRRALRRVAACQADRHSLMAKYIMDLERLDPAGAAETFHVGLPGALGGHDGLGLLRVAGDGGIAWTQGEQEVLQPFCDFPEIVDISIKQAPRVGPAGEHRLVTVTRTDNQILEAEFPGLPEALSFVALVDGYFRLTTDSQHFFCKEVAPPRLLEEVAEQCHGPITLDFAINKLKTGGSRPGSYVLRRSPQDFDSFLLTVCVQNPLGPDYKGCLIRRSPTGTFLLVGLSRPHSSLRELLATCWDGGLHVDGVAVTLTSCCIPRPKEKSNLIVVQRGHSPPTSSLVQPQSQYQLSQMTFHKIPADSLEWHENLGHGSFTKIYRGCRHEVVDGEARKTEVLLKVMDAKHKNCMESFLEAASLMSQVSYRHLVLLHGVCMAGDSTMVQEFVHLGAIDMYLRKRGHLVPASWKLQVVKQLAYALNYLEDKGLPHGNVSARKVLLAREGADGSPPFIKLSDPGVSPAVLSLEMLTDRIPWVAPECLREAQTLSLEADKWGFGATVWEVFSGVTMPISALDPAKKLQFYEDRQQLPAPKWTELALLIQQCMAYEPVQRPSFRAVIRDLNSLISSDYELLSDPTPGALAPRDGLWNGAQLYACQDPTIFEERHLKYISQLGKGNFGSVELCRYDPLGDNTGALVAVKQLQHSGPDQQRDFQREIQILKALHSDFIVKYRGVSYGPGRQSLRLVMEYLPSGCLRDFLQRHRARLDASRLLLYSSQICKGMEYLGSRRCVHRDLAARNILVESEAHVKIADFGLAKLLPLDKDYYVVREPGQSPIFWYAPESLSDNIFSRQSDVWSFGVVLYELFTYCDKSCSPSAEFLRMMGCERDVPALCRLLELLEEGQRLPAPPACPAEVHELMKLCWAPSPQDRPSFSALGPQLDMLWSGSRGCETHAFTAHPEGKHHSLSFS
Procedure: (§1) A compound's ability to inhibit JAK activity may be assessed using a variety of methods, including in vitro and in vivo assays. The following in vitro assays measure a test compound's ability to inhibit JAK2- and JAK3-mediated phosphorylation of FAM-labeled JAK-specific substrates.
(§2) Purified JAK2 and JAK3 proteins were purchased from Invitrogen. JAK2 and JAK3 inhibition is determined using a black 384-well-plate format in buffer containing 50 mM HEPES, 10 mM NaCl, 10 mM MgCl2, 0.2 mM EDTA, 0.01% EDA (Brij® 35), 1 mM DTT, 0.1 mg/mL BSA at pH 7.3. Each test compound is prepared in DMSO using 2-fold serial dilutions for 11 data points and is added to the buffer so that each dilution contains 3% DMSO.
(§3) To each well is added 2 μL of 3 μM 5FAM-KKKKEEIYFFFG-NH2 and 15 μM ATP (in buffer), 2 μL of diluted test compound (3% DMSO in medium), and 2 μL of 1.2 nM JAK3 in buffer. The reaction mixture is incubated at room temperature for 60 min and is quenched by adding 50 mM HEPES, 30 mM EDTA, and 0.1% Tx-100 (pH 7.3). To quantify the fluorescent-labeled substrate and product following reaction, the test plate is loaded on a Caliper LC-3000, which measures percent of conversion by microfluidic-based separation.
(§4) Corresponding IC50 values are calculated by non-linear curve fitting of the compound concentrations and percent of inhibition to the standard IC50 equation.

JAK2 = molecular target: T2, JAK2 (Homo sapiens, UniProt O60674); assay: Assay for JAK2 Inhibition (phosphorylation of FAM-labeled substrate, Caliper LC-3000); assay type: biochemical; conditions: −log10(IC50), IC50 is the molar concentration at 50% inhibition; read-out: JAK2 pIC50 (converted)
T2 construct: purchased Invitrogen
T2 sequence (O60674 whole entry): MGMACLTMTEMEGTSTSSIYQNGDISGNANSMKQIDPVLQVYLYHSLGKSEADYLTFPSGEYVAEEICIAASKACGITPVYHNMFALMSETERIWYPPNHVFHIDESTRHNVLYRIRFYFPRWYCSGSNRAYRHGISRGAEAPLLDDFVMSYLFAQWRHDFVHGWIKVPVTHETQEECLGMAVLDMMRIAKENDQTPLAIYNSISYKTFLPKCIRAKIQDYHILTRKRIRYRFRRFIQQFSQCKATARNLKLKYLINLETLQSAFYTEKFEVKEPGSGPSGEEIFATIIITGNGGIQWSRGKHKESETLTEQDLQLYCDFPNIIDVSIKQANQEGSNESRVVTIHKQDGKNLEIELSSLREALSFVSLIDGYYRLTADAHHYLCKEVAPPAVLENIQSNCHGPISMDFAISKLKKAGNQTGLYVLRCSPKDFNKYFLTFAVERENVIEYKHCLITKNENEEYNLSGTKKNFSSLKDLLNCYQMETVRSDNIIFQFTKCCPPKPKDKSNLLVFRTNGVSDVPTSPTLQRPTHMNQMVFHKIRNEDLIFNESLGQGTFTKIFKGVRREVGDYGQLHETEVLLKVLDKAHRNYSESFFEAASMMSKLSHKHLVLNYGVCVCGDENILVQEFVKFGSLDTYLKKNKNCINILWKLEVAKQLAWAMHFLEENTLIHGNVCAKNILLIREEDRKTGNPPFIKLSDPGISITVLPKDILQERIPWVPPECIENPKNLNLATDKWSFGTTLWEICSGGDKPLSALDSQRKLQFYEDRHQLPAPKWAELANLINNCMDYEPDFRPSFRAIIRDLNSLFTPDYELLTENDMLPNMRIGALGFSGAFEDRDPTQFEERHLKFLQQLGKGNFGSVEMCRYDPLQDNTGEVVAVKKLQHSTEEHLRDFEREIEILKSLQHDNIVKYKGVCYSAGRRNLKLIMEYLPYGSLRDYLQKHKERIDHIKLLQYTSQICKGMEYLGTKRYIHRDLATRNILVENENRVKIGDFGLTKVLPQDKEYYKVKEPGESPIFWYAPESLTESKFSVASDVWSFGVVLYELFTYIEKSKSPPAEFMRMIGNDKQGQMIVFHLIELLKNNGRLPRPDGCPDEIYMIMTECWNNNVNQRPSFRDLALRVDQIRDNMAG
Procedure: as §1, §2
as §3, with “45” for “15”, “0.6” for “1.2”, “JAK2” for “JAK3”, “HEPeX,” for “HEPES,”
as §4

Structure (SMILES)	IC50 (JAK3) [nM]	IC50 (JAK2) [nM]
O=C1c2c[nH]c3nccc(c23)CN1C1(C(=O)NC2CCCC2)CCCC1 [Example 31, N-cyclopentyl-1-(3-oxopyrrolo[4,3,2-de][2,6]naphthyridin-4(1H,3H,5H)-yl)cyclopentanecarboxamide]	20000	20000
CC[C@H](C)[C@H](C(=O)NC1CCCC1)N1Cc2ccnc3[nH]cc(c23)C1=O [Example 24, (2R,3S)—N-cyclopentyl-3-methyl-2-(3-oxopyrrolo[4,3,2-de][2,6]naphthyridin-4(1H,3H,5H)-yl)pentanamide]	1580	12600
CC(C)(C)[C@H](C(=O)NC1CCCC1)N1Cc2ccnc3[nH]cc(c23)C1=O [Example 26, (R)—N-cyclopentyl-3,3-dimethyl-2-(3-oxopyrrolo[4,3,2-de][2,6]naphthyridin-4(1H,3H,5H)-yl)butanamide]	10	126
O=C(NC1CCCC1)[C@@H](C1CC1)N1Cc2ccnc3[nH]cc(c23)C1=O [Example 25, (R)—N-cyclopentyl-2-cyclopropyl-2-(3-oxopyrrolo[4,3,2-de][2,6]naphthyridin-4(1H,3H,5H)-yl)acetamide]	200	1580
CC(C)[C@H](C(=O)N1CCC(C#N)C1)N1Cc2c(Cl)cnc3[nH]cc(c23)C1=O (stereo partly drawn) [Example 33, 1-((R)-2-(6-chloro-3-oxopyrrolo[4,3,2-de][2,6]naphthyridin-4(1H,3H,5H)-yl)-3-methylbutanoyl)pyrrolidine-3-carbonitrile]	39.8	794
CC(C)[C@H](C(=O)NCCS(C)(=O)=O)N1Cc2c(F)cnc3[nH]cc(c23)C1=O [Example 46, (R)-2-(6-fluoro-3-oxopyrrolo[4,3,2-de][2,6]naphthyridin-4(1H,3H,5H)-yl)-3-methyl-N-(2-(methylsulfonyl)ethyl)butanamide]	251	1580
CC[C@H](C(=O)N1CCC(COC)C1)N1Cc2ccnc3[nH]cc(c23)C1=O (stereo partly drawn) [Example 60, 4-((2R)-1-(3-(methoxymethyl)pyrrolidin-1-yl)-1-oxobutan-2-yl)-4,5-dihydropyrrolo[4,3,2-de][2,6]naphthyridin-3(1 H)-one]	794	10000
CC(C)[C@H](C(=O)Nc1ccc(C#N)cc1)N1Cc2c(Cl)cnc3[nH]cc(c23)C1=O [Example 35, (R)-2-(6-chloro-3-oxopyrrolo[4,3,2-de][2,6]naphthyridin-4(1H,3H,5H)-yl)-N-(4-cyanophenyl)-3-methylbutanamide]	316	2510
CC[C@H](C(=O)N1CCN(S(C)(=O)=O)CC1)N1Cc2ccnc3[nH]cc(c23)C1=O [Example 63, (R)-4-(1-(4-(methylsulfonyl)piperazin-1-yl)-1-oxobutan-2-yl)-4,5-dihydropyrrolo[4,3,2-de][2,6]naphthyridin-3(1 H)-one]	631	6310
CC(C)[C@H](C(=O)N1CC(C#N)C1)N1Cc2ccnc3[nH]cc(c23)C1=O [Example 81, (R)-1-(3-methyl-2-(3-oxopyrrolo[4,3,2-de][2,6]naphthyridin-4(1H,3H,5H)-yl)butanoyl)azetidine-3-carbonitrile]	5.01	126
CC[C@H](C(=O)N1CCCC1)N1Cc2ccnc3[nH]cc(c23)C1=O [Example 19, (R)-4-(1-oxo-1-(pyrrolidin-1-yl)butan-2-yl)-4,5-dihydropyrrolo[4,3,2-de][2,6]naphthyridin-3(1H)-one]	316	3980
CC(C)[C@H](C(=O)N1CC(C)(C#N)C1)N1Cc2ccnc3[nH]cc(c23)C1=O [Example 53, (R)-3-methyl-1-(3-methyl-2-(3-oxopyrrolo[4,3,2-de][2,6]naphthyridin-4(1H,3H,5H)-yl)butanoyl)azetidine-3-carbonitrile]	12.6	251
CCC(=O)N1CCC(CC)(N2Cc3c[nH]c4nccc(c34)C2=O)CC1 [Example 16, 4-(4-ethyl-1-propionylpiperidin-4-yl)-3,4-dihydropyrrolo[4,3,2-de][2,6]naphthyridin-5(1H)-one]	50.1	10
CCC(CC)N1Cc2c[nH]c3nccc(c23)C1=O [Example 10, 4-(pentan-3-yl)-3,4-dihydropyrrolo[4,3,2-de][2,6]naphthyridin-5(1H)-one]	100	79.4
N#CCC(=O)N1CCC(N2Cc3c[nH]c4nccc(c34)C2=O)CC1 [Example 3, 3-oxo-3-(4-(5-oxopyrrolo[4,3,2-de][2,6]naphthyridin-4(1H,3H,5H)-yl)piperidin-1-yl)propanenitrile]	1580	794
CC(C)C[C@H](C(=O)N1CCCC1)N1Cc2ccnc3[nH]cc(c23)C1=O [Example 21, (R)-4-(4-methyl-1-oxo-1-(pyrrolidin-1-yl)pentan-2-yl)-4,5-dihydropyrrolo[4,3,2-de][2,6]naphthyridin-3(1H)-one]	126	794
CC(C)[C@H](C(=O)NC1CCOC1)N1Cc2c(F)cnc3[nH]cc(c23)C1=O (stereo partly drawn) [Example 44, (2R)-2-(6-fluoro-3-oxopyrrolo[4,3,2-de][2,6]naphthyridin-4(1H,3H,5H)-yl)-3-methyl-N-(tetrahydrofuran-3-yl)butanamide]	126	1580
CC[C@H](C(=O)N1CCN(c2ccccn2)CC1)N1Cc2ccnc3[nH]cc(c23)C1=O [Example 64, (R)-4-(1-oxo-1-(4-(pyridin-2-yl)piperazin-1-yl)butan-2-yl)-4,5-dihydropyrrolo[4,3,2-de][2,6]naphthyridin-3(1 H)-one]	2510	20000
CC[C@H](C(=O)N1CCC(c2ccc(F)cc2)C1)N1Cc2ccnc3[nH]cc(c23)C1=O (stereo partly drawn) [Example 58, 4-((2R)-1-(3-(4-fluorophenyl)pyrrolidin-1-yl)-1-oxobutan-2-yl)-4,5-dihydropyrrolo[4,3,2-de][2,6]naphthyridin-3(1 H)-one]	316	3160
CC1(N2Cc3c[nH]c4nccc(c34)C2=O)CCN(C(=O)CC#N)CC1 [Example 6, 3-(4-methyl-4-(5-oxopyrrolo[4,3,2-de][2,6]naphthyridin-4(1H,3H,5H)-yl)piperidin-1-yl)-3-oxopropanenitrile]	501	79.4
CC(C)(C)OC(=O)N1CCC(CN2Cc3c[nH]c4nccc(c34)C2=O)C1 (centres unmarked) [Example 12, Tert-Butyl 3-((5-oxopyrrolo[4,3,2-de][2,6]naphthyridin-4(1H,3H,5H)-yl)methyl)pyrrolidine-1-carboxylate]	7940	3160
CC[C@H](C(=O)N(C)CC(C)C)N1Cc2ccnc3[nH]cc(c23)C1=O [Example 68, (R)—N-isobutyl-N-methyl-2-(3-oxopyrrolo[4,3,2-de][2,6]naphthyridin-4(1H,3H,5H)-yl)butanamide]	2510	20000
